In US20150064754A1, “BIOPRODUCTION OF CHEMICALS” (OPX Biotechnologies, Inc., priority 2013, published 2015):

B1: rhtA: chemical exporter from E. coli characterized for homoserine transport; mutant version rhtA(P2S) overexpressed (protein)
chain: MSGSLRKMPVWLPIVILLVAMASIQGGASLAKSLFPLVGAPGVTALRLALGTLILIAFFKPWRLRFAKEQRLPLLFYGVSLGGMNYLFYLSIQTVPLGIAVALEFTGPLAVALFSSRRPVDFVWVVLAVLGLWFLLPLGQDVSHVDLTGCALALGAGACWAIYILSGQRAGAEHGPATVAIGSLIAALIFVPIGALQAGEALWHWSVIPLGLAVAILSTALPYSLEMIALTRLPTRTFGTLMSMEPALAAVSGMIFLGETLTPIQLLALGAIIAASMGSTLTVRKESKIKELDIN

Assays:
E. coli ACCase = E. coli ACCase (Escherichia coli, UniProt P0A9Q5+P0ABD5+P0ABD8+P24182); settings: FIG. 4; for decrease of the activity of the ACCase enzyme relative to control: salts of 3-HP levels near 0.66M; for decrease of the activity of the ACCase enzyme: salt levels near 0.44M
Chain of E. coli ACCase (P0A9Q5 whole entry): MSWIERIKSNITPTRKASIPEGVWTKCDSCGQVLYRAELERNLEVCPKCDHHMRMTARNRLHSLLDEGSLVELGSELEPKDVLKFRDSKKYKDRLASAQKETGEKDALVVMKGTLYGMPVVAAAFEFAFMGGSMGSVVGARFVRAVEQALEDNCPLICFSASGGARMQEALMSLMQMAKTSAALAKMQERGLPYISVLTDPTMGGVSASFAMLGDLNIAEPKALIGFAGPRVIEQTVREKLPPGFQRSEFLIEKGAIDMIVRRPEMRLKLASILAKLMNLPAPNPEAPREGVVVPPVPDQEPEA
Chain of E. coli ACCase (P0ABD5 whole entry): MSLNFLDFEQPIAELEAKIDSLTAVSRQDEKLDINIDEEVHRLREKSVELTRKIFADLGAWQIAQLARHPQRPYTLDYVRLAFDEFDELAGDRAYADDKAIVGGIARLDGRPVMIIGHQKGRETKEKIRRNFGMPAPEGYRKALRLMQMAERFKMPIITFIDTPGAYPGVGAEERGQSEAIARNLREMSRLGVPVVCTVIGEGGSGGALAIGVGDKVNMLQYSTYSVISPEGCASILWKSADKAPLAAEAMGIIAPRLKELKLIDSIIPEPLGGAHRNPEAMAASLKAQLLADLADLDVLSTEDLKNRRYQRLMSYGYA
Protocol: Levels of greater than 0.66M (60 g/L) are expected to be present for commercially viable commercial production of 3-HP.
Each gene was amplified by PCRs with Pfu Ultra II HS using the manufacturer's instructions, and the PCR products were purified using the Zymo PCR Cleanup kit. Concentrations of products were measured using the Nanodrop spectophotometer. The Gibson Assembly kit (NEB) was used to construct plasmids expressing the ACCase subunit genes as directed by the manufacturer. The effect of NH4-3-HP and NH4Cl on H. elongata ACCase was tested and compared to the E. coli ACCase.

H. elongata ACCase = test: Salt inhibition of ACCase enzyme activity (H. elongata ACCase); assay type: biochemical, Halomonas elongata; settings: FIG. 4
Protocol: Concentrations of products were measured using the Nanodrop spectophotometer.

E. coli strains = test: Growth inhibition of E. coli strains grown in the presence of 3-HP; assay type: cell-based; settings: levels as low as
3-HP production = test: 1 L fermentation, 3HP titer with overexpression of rhtA exporter; assay type: cell-based, E. coli; settings: control plasmid without rhtA, FIG. 7
Protocol: A known chemical exporter from E. coli that has been previously characterized for homoserine transport, rhtA, was evaluated for increased production of 3-HP. A mutant version of the exporter, rhtA(P2S) (SEQ ID NO. 30 nucleic acid, SEQ ID NO. 31 protein) was synthesized behind the PtpiA promoter and inserted into the pTRC-PyibD-MCR plasmid behind a terminator using the Gibson Assembly kit (NEB) according to manufacturer's instructions. The effects of overexpression of rhtA were evaluated in 1 L fermentation compared to the control plasmid without rhtA. […] Construction of plasmids expressing another putative transporter, ydcO (SEQ ID NO. 32 nucleic acid, SEQ ID NO. 33 protein) is carried out in the same manner.

| Molecule | effect of salt on E. coli ACCase (E. coli ACCase) | decrease of the activity of the ACCase enzyme relative to control (E. coli ACCase) | effect of salt on H. elongata ACCase compared to the E. coli ACCase (H. elongata ACCase) | decrease of the activity of the ACCase enzyme (E. coli ACCase) | further results |
| --- | --- | --- | --- | --- | --- |
| N.O=C(O)CCO [NH4-3-HP] | significantly inhibited | approximately 80% | less affected | – | – |
| O=C(O)CCO [3-HP, 3-hydroxypropionic acid] | – | – | – | – | 3-HP level at which growth inhibition is demonstrated (E. coli strains): 20 g/L |
| [Cl-].[Na+] [NaCl] | – | – | – | approximately 80% | – |
| Cl.N [NH4Cl] | significantly inhibited | – | less affected | approximately 80% | – |
| O=C([O-])CCO.[Na+] [Na-3-HP] | – | approximately 80% | – | – | – |
| B1 | – | – | – | – | 3HP titer compared to the control production strain (3-HP production): significant improvement |
